Molecular target: epidermal growth factor receptor (EGFR) (Homo sapiens, UniProt P00533)
Assay: SPRi with photo-crosslinked immobilized proguanil capturing proteins from T24 cell lysate, identified by LC-MS; no Kd
Assay type: cell-based

Sequence of epidermal growth factor receptor (EGFR) (P00533 25-1210): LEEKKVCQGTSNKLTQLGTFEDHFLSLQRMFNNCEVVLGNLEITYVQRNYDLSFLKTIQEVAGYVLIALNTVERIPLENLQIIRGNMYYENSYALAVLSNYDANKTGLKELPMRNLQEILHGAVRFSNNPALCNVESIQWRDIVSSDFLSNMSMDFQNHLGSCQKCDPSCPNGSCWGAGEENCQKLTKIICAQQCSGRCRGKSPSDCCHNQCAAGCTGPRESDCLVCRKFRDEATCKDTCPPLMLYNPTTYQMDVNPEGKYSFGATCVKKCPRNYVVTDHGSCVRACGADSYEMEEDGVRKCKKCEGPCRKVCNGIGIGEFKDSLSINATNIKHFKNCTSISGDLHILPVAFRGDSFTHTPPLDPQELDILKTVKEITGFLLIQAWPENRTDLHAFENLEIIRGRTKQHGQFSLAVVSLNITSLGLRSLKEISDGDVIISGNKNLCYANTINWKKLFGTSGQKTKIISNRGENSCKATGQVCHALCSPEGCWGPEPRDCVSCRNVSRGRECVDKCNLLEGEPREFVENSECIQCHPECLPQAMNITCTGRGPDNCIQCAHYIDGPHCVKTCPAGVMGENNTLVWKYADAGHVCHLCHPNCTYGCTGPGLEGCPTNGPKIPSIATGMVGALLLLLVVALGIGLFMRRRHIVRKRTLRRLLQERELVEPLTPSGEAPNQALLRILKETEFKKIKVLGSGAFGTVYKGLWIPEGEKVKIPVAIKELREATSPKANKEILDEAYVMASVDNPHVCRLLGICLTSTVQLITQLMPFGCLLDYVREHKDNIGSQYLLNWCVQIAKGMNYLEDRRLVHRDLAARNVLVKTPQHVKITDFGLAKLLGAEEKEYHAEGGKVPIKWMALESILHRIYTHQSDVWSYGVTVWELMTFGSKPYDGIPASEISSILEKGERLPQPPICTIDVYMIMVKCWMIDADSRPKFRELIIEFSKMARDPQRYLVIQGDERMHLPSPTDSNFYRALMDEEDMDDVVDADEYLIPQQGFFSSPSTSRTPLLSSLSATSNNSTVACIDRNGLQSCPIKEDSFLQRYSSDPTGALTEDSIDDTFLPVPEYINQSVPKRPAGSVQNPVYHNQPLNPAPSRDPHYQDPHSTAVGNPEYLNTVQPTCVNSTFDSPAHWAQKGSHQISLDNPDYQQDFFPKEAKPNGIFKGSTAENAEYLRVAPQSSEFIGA

[H]/N=C(\N/C(=N/[H])Nc1ccc(Cl)cc1)NC(C)C [proguanil]
SPRi with photo-crosslinked immobilized proguanil capturing proteins from T24 ce: surface plasmon resonance imaging (SPRi) experiments and found that proguanil strongly binds to EGFR (Fig. 1A)

— article PMC9132982, “Inhibitory role of proguanil on the growth of bladder cancer via enhancing EGFR degradation and inhibiting its downstream signaling pathway to induce autophagy” (Cell Death & Disease, 2022)
